For 2 compounds, Kd results are on record in article PMC7888557 (International journal of biological macromolecules, 2017).

The structures appear in SMILES notation.

The target of the experiment is T1, S-adenosyl-L-homocysteine hydrolase from T. maritima (TmSAHase; iTmSAHase as purified, htTmSAHase after heat treatment) (Thermotoga maritima, UniProt O51933).
T1 sequence (O51933 1-404): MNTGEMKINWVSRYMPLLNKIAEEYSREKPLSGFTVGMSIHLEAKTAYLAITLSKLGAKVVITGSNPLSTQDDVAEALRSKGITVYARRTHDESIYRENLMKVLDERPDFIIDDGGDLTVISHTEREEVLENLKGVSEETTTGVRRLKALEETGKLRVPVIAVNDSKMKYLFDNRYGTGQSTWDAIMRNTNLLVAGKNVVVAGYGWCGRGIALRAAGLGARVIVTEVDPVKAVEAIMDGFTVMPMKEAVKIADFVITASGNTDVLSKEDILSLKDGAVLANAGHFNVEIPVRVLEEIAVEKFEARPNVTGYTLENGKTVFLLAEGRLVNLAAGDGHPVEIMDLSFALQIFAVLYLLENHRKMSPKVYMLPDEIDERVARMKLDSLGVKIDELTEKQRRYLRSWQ
Kind of experiment: isothermal titration calorimetry. The format is binding. On the technique in general: In ITC the heat of successive injections is recorded.

The term Kd denotes the constant that tells how readily two partners part at equilibrium. Read a high Kd as weaker binding. As for `Nc1ncnc2c1ncn2[C@@H]1O[C@H](COP(=O)(O)O)[C@@H](O)[C@H]1O` [AMP, adenosine 5′-monophosphate], the dissociation constant Kd is, setting by setting: (htTmSAHase/AMP) 25 ± 2 µM; (iTmSAHase/AMP) 30 ± 3 µM.
In the case of `Nc1ncnc2c1ncn2[C@@H]1O[C@H](CO)[C@@H](O)[C@H]1O` [Ado, adenosine], the Kd by setting is: (htTmSAHase/Ado) 8.8 ± 1.2 µM; (iTmSAHase/Ado) 19 ± 1.5 µM.
